Measurements from US11339405B2, “Kit and method for producing induced embryonic neural progenitors” (priority 2017, dated 2022).
Entries after “also recorded” stand apart in the source; their conditions may differ.

Key:
[1] = tested on: FBs infected with virus encoding the 6 or 7TF combinations
HD-iENPs = test: γH2AX ICC (DNA damage) in HD-iENPs; format: cell-based, human; settings: vs vehicle (DMSO)
HD-iENP-derived neurons = test: γH2AX ICC (DNA damage) in HD-iENP-derived neurons; format: cell-based, human; settings: neuronal derivatives of HD-iENPs; vs vehicle (DMSO)
AD-iENP-derived neurons = test: pTAU (AT8) ICC in AD-iENP-derived neurons, AD drug testing; format: cell-based, human; settings: AD-iENP-derived neurons (AD1, APOE4/E4), treated for 2 days at 7 days after cortical differentiation; vs DMSO
Procedure: General neural differentiation was examined using differentiation media [Neurobasal, B27 supplement, 1% NEAA, 2 mM glutamine, 1 mM sodium pyruvate (Invitrogen), 300 μg/ml dbcAMP, 50 μM ascorbic acid (Sigma), 20 ng/ml BDNF, 20 ng/ml GDNF, 50 ng/ml NGF (Peprotech)], while specific neuronal differentiation were examined using cortical neuronal differentiation media, dopaminergic neuronal differentiation media, and PNS neuronal differentiation media [cortical neuronal differentiation media: Neurobasal, N2 supplement, B27 supplement (Invitrogen), 100 ng/ml SHH, 125 ng/ml Noggin, 250 ng/ml DKK1, 10 ng/ml BDNF, 10 ng/ml bFGF (R&D), 2 μM XAV939, 100 nM LDN93189, 10 μM SB431542, 200 μM ascorbic acid, 200 μM dbcAMP (Sigma); dopaminergic neuronal differentiation media: DMEM/F12, N2 supplement (Invitrogen), 20 ng/ml BDNF, 200 ng/ml SHH, 100 ng/ml FGF8P (R&D), 200 μM ascorbic acid (Sigma); PNS neuronal differentiation media: DMEM/F12, N2 supplement (Invitrogen), 3 μM CHIR99021, 10 μM SU5402, 10 μM DAPT, 200 μM dbcAMP]. For AD drug testing, AD- and control-iENPs were subjected to cortical differentiation. At 7 days after differentiation, cells were treated with SB415286, 1-Azakenpaullone (Selleckchem), or DMSO (Sigma) for 2 days. […]
The ICC procedure was performed as previously described. […] Signals were recorded using a Zeiss microscope and Spot software. […]

[2] = tested on: TTX-sensitive sodium channels; format: cell-based, human

Molecule: RepSox
- efficiency of iENP-6F generation [1]: significantly improved

Molecule: CCNC(=O)[C@H]1O[C@@H](n2cnc3c(N)nc(NCCc4ccc(CCC(=O)O)cc4)nc32)[C@H](O)[C@@H]1O [CGS21680]
- γH2AX expression (DNA damage) (HD-iENPs): significantly decreased; also recorded: decreased DNA damage
- γH2AX expression (DNA damage) (HD-iENP-derived neurons): significantly decreased; also recorded: decreased DNA damage

Molecule: O=C1NC(=O)C(c2ccccc2[N+](=O)[O-])=C1Nc1ccc(O)c(Cl)c1 [SB415286]
- pTAU aggregation / pTAU expression (AD-iENP-derived neurons): significantly reduced

Molecule: O=C1Cc2c([nH]c3ccc(Br)cc23)-c2ncccc2N1 [1-Aza, 1-Azakenpaullone]
- pTAU aggregation / pTAU expression (AD-iENP-derived neurons): significantly reduced

Molecule: NC1=N[C@H](O)[C@H]2[C@H]3O[C@]4(O)O[C@@H]([C@@H](O)[C@@]2(N1)[C@@H]4O)[C@]3(O)CO [TTX, tetrodotoxin]
- inward Na+ currents [2]: could be blocked
- sodium channel-mediated inward currents [2]: blocked
